Assay results as given in patent publication US9624288B2, “Engineered receptors and their use” (University of Pittsburgh—Of the Commonwealth System of …, priority 2012, dated 2017).

Biological target: T1, EGRAFY mutant (R91A, F188Y; SEQ ID NO: 15) (Dickeya chrysanthemi, UniProt P0C7B7, F187Y/INS163G/R91A)
T1 construct: expressed in transfected cells; host or cells: Xenopus laevis oocytes
Test: Two-electrode voltage clamp, amine agonist activation of the EGRAFY mutant in oocytes
Type: cell-based, Erwinia chrysanthemi / human
Procedure: For pH measurements, 10 mM MES was added. […] Non-linear regressions were performed using Prism software (Graphpad). […] (FIG. 2).

CCCN [propylamine]
EC50: 1900 ± 200 nM
